According to patent publication US9102648B1, “Bioavailable diacylhydrazine ligands for modulating the expression of exogenous genes via an ecdysone receptor complex” (Intrexon Corporation, priority 2003, dated 2015):
Values after ≈ are worked out from the molar mass of the structure shown. Where two headings read alike, the source gives them in different places.

How the values were obtained:
[1] = Determination of LC Log P (experimental); type: physicochemical; settings: for chromatographic logP: from LC retention time against log P standards, read-out: LC LogP (exp)
Experimental: Liquid chromatography retention times (RT) are measured for each substance using the conditions described below. A linear equation is derived relating RT to log P is developed from the data for the log P standards. The log P for the test compound is calculated from the log P/retention time equation.

[2] = tested on: mutated ecdysone receptor-based gene switch; assay: In vivo SEAP induction, ligand by IP injection; set-up: species or system C57BL/6 mouse; settings: for Secreted Alkaline Phosphatase (percentage of GS ™-E ligand induction) Day 2 / Secreted Alkaline Phosphatase (percentage of GS ™-E ligand induction) Day 3 / Secreted Alkaline Phosphatase (percentage of GS ™-E ligand induction) Day 11: mouse serum; for Secreted Alkaline Phosphatase (percentage of GS ™-E ligand induction) Day 2: IP 2.6 μmol ligand 3 days after electroporation, day 2 after ligand; for Secreted Alkaline Phosphatase (percentage of GS ™-E ligand induction) Day 3 / Secreted Alkaline Phosphatase (percentage of GS ™-E ligand induction) Day 11: IP 2.6 μmol ligand; for Secreted Alkaline Phosphatase (percentage of GS ™-E ligand induction) Day 3: day 3 after ligand; for Secreted Alkaline Phosphatase (percentage of GS ™-E ligand induction) Day 11: day 11 after ligand
Method in brief: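 Gene switch plasmids (receptor under CMV promoter) electroporated into quadriceps of C57BL/6 mice; 3 days later ligand given IP at 2.6 μmol or 26 nmol in 50 μL DMSO per mouse. Serum SEAP measured by chemiluminescence 2-11 days after dosing, averaged over four animals, expressed as % of GS™-E ligand induction.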

[3] = Determination of water solubility (de-ionized water, LC/MS); settings: kinetic from dmso stock
Experimental: Aqueous solutions are prepared as follows in triplicate: 50 μl of a 10,000 ppm solution (2,000 μg of solid dissolved in 200 μl of methanol) of the substrate in methanol or DMSO is added to 1 mL of de-ionized water in a 2 dram or smaller vial with magnetic stirring. Stirring is continued overnight at ambient temperature. The slurry is taken up into a syringe with a luer tip. The contents are passed through a new 13 mm 0.2 ρM Acrodisc filter (tuffryn or glass fiber) into an autosampler bottle. For preparation of calibration standard solutions: dilutions of the 10,000 ppm solution were prepared at 10, 5, 1, 0.5, and 0.2 ppm. […] For more soluble materials, dilution of the samples into this range is preferable to increasing the calibration range because the non-linearity of the response results in less useful calibration curves. However a shift in the range of calibration standards is required for very insoluble compounds.
Chromatography of the samples was then preformed. For most diacylhydrazines the following conditions were adequate for the measurement. Other columns and gradients may be substituted as appropriate.
Analysis of the test samples is conducted as follows: Each solubility replicate is analyzed in duplicate. […] Standard curves are obtained from duplicate injections of the standards. The concentration of the substrate is determined by calculation from the equation relating concentration and response.

[4] = Partition coefficient Log (D), 1-octanol / pH 7.4 buffer; type: physicochemical; settings: water-saturated 1-octanol / pH 7.4 buffer, room temperature
Experimental: The partition coefficient, Log (D), between water-saturated 1-octanol and pH 7.4 buffer was determined for the test compounds. The buffer was prepared as described in section 2. A 12 μl aliquot of a 10 mM stock solution in DMSO was introduced to a vial containing 0.60 mL of octanol and 0.60 mL of buffer at room temperature. Testosterone was also added to a final concentration of 100 μM as an internal control. The solution was vortexed for 60 minutes and centrifuged at 10,000 rpm for 10 minutes. The organic and aqueous layers were removed. Serial dilutions of the organic layer were made with 50% methanol except for the initial dilution, which was made in 100% methanol. Serial dilutions of the aqueous layer were made in the pH 7.4 buffer. The diluted samples were then assayed by LC/MS for the compound as well as for testosterone. The Log of the ratio of peak area responses was calculated to obtain the Log (D). Typical Log D values for testosterone are from 3.0-3.3.

[5] = tested on: Caco-2 monolayers; assay: Bi-directional permeability, CACO-2; type: in vitro ADME
Experimental: (§1) Caco-2 monolayers were grown to confluence on collagen-coated, microporous, polycarbonate membranes in 12-well Costar Transwell plates. Details of the plates and their certification are shown below. The permeability assay buffer was Hank's Balanced Salt Solution containing 10 mM HEPES and 15 mM glucose at a pH of 7.0±0.2. The dosing solution concentration was 10 μM in assay buffer. At each time point, 1 and 2 hours, a 200-μL aliquot was taken from the receiver chamber and replaced with fresh assay buffer. Cells were dosed on the apical side (A-to-B) or basolateral side (B-to-A) and incubated at 37° C. with 5% CO2 and 90% relative humidity. Each determination was performed in duplicate. The important experimental parameters are outlined below. Permeability through a cell-free (blank) membrane was studied to determine non-specific binding and free diffusion of the compound through the device. Lucifer yellow flux was also measured for each monolayer after being subjected to the test compounds to ensure no damage was inflicted to the cell monolayers during the flux period.
(§2) All samples were assayed by LC/MS using electrospray ionization. Typical LC/MS conditions are as follows:
(§3) dCr/dt is the cumulative concentration in the receiver compartment versus time in M s^−1.
(§4) Vr is the volume of the receiver compartment in cm^3.
(§5) Vd is the volume of the donor compartment in cm^3.
(§6) A is the area of the cell monolayer (1.13 cm^2 for 12-well Transwell).
(§7) C0 is the concentration of the dosing solution in M.
(§8) Cr^final is the cumulative receiver concentration in M at the end of the incubation period.
(§9) Cd^final is the concentration of the donor in M at the end of the incubation period.

[6] = Bi-directional permeability, CACO-2; type: in vitro ADME
Experimental: as §1, §2, §3, §4, §5, §6, §7, §8, §9

[7] = Caco-2, pH 7, Percent Recovery Blank
[8] = human, Caco-2, pH 7, Papp, A-to-B Avg
[9] = human, Caco-2, pH 7, Papp, A-to-B Rep. 1
[10] = human, Caco-2, pH 7, Papp, A-to-B Rep. 2
[11] = human, Caco-2, pH 7, Papp, B-to-A Avg
[12] = human, Caco-2, pH 7, Papp, B-to-A Rep. 1
[13] = human, Caco-2, pH 7, Papp, B-to-A Rep. 2
[14] = human, Caco-2, pH 7, Percent Recovery A-to-B
[15] = human, Caco-2, pH 7, Percent Recovery B-to-A

Row | Compound | chromatographic logP [1] | Secreted Alkaline Phosphatase (percentage of GS ™-E ligand induction) Day 2 [2] | Secreted Alkaline Phosphatase (percentage of GS ™-E ligand induction) Day 3 [2] | Secreted Alkaline Phosphatase (percentage of GS ™-E ligand induction) Day 11 [2] | solubility kinetic [3] | Log(D) Octanol/pH 7.4 [4] | Significant Efflux ([5]; Caco-2) | Papp at 2 h, 10 µM ([6]; Caco-2, pH 7, Papp Blank) | recovery at 2 h, 10 μM [6, 7] | efflux ratio at 2 h, 10 μM ([6]; human, Caco-2, pH 7) | Papp A→B at 2 h, 10 µM [6, 8] | Papp A→B at 2 h, 10 µM [6, 9] | Papp A→B at 2 h, 10 µM [6, 10] | Papp B→A at 2 h, 10 µM [6, 11] | Papp B→A at 2 h, 10 µM [6, 12] | Papp B→A at 2 h, 10 µM [6, 13] | recovery at 2 h, 10 μM [6, 14] | recovery at 2 h, 10 μM [6, 15] | further results
1 | CCc1ccc(C(=O)NN(C(=O)c2cc(C)cc(C)c2)C(C)(C)C)c(F)c1 [RG-101523, 3,5-Dimethyl-benzoic acid N-tert-butyl-N′-(4-ethyl-2-fluoro-benzoyl)-hydrazide] | 4.35 | 85 percentage of GS ™-E ligand induction | 79 percentage of GS ™-E ligand induction | 1,116 percentage of GS ™-E ligand induction | 13.4 µM (≈ 4.96 µg/mL) | 2.9 | No | 29.4 ×10⁻⁶ cm/s | 95% | 1 | 25.4 ×10⁻⁶ cm/s | 24.2 ×10⁻⁶ cm/s | 26.6 ×10⁻⁶ cm/s | 24.5 ×10⁻⁶ cm/s | 23.6 ×10⁻⁶ cm/s | 25.4 ×10⁻⁶ cm/s | 95% | 88% | 
2 | CCc1c(OC)cccc1C(=O)NN(C(=O)c1cc(C)cc(C)c1)C(C)(C)C [RG-102240, N-(3-methoxy-2-ethylbenzoyl)-N′-(3,5-dimethylbenzoyl)-N′-tert-butylhydrazine] | 4.2 | 100 percentage of GS ™-E ligand induction | 100 percentage of GS ™-E ligand induction | 100 percentage of GS ™-E ligand induction | 9.8 µM (≈ 3.75 µg/mL) | 3.4 |  |  |  |  |  |  |  |  |  |  |  |  | logP ([1]; diacylhydrazine log P standards (log P known experimentally)): 4.2; Secreted Alkaline Phosphatase Day 2 ([2]; IP 130 nmol ligand): 652 ng/ml mouse sera; Secreted Alkaline Phosphatase Day 3 ([2]; IP 130 nmol ligand): 1,780 ng/ml mouse sera; Secreted Alkaline Phosphatase Day 7 ([2]; IP 130 nmol ligand): 139 ng/ml mouse sera; Absorption Potential ([5]; classification from Papp(A-to-B)): High (Papp(A-to-B) ≧ 1.0 × 10^−6 cm/s High); Significant Efflux ([5]; classification from Papp(B-to-A) and ratio): No; Papp at 2 h, 10 µM ([6]; Caco-2, pH 7, cell-free (blank) membrane, 10 μM, read-out: Papp Blank): 28.4 ×10⁻⁶ cm/s; recovery at 2 h, 10 μM ([6]; Caco-2, pH 7, cell-free (blank) membrane, 10 μM, read-out: Percent Recovery Blank): 78%; Papp A→B at 2 h, 10 µM ([6]; human, Caco-2, pH 7, Caco-2, 10 μM, average of 2 replicates, read-out: Papp, A-to-B Avg): 31.8 ×10⁻⁶ cm/s; Papp B→A at 2 h, 10 µM ([6]; human, Caco-2, pH 7, Caco-2, 10 μM, average of 2 replicates, read-out: Papp, B-to-A Avg): 23.5 ×10⁻⁶ cm/s; Papp A→B at 2 h, 10 µM ([6]; human, Caco-2, pH 7, Caco-2, 10 μM, replicate 1, read-out: Papp, A-to-B Rep. 1): 32.3 ×10⁻⁶ cm/s; Papp B→A at 2 h, 10 µM ([6]; human, Caco-2, pH 7, Caco-2, 10 μM, replicate 1, read-out: Papp, B-to-A Rep. 1): 23.3 ×10⁻⁶ cm/s; Papp A→B at 2 h, 10 µM ([6]; human, Caco-2, pH 7, Caco-2, 10 μM, replicate 2, read-out: Papp, A-to-B Rep. 2): 31.4 ×10⁻⁶ cm/s; Papp B→A at 2 h, 10 µM ([6]; human, Caco-2, pH 7, Caco-2, 10 μM, replicate 2, read-out: Papp, B-to-A Rep. 2): 23.7 ×10⁻⁶ cm/s; recovery at 2 h, 10 μM ([6]; human, Caco-2, pH 7, Caco-2, apical-to-basolateral, 10 μM, read-out: Percent Recovery A-to-B): 94%; recovery at 2 h, 10 μM ([6]; human, Caco-2, pH 7, Caco-2, basolateral-to-apical, 10 μM, read-out: Percent Recovery B-to-A): 87%; efflux ratio at 2 h, 10 μM ([6]; human, pH 7, Caco-2 efflux ratio, read-out: Papp B-A / Papp A-B Ratio): 0.7
3 | CCC(N(NC(=O)c1cccc(C)c1C)C(=O)c1cc(C)cc(C)c1)C(C)(C)C (centres unmarked) [RG-103309, 3,5-dimethyl-benzoic acid N′-(2,3-dimethyl-benzoyl)-N-(1-ethyl-2,2-dimethyl-propyl)-hydrazide] |  | 251 percentage of GS ™-E ligand induction | 298 percentage of GS ™-E ligand induction |  | 2.9 µM (≈ 1.14 µg/mL) | 3.0 | No | 23.6 ×10⁻⁶ cm/s | 70% | 1.3 | 24.5 ×10⁻⁶ cm/s | 25.2 ×10⁻⁶ cm/s | 23.8 ×10⁻⁶ cm/s | 32.5 ×10⁻⁶ cm/s | 32.5 ×10⁻⁶ cm/s | 32.5 ×10⁻⁶ cm/s | 74% | 75% | Secreted Alkaline Phosphatase Day 2 ([2]; IP 26 nmol ligand): 3,428 ng/ml mouse sera; Secreted Alkaline Phosphatase Day 3 ([2]; IP 26 nmol ligand): 2,800 ng/ml mouse sera; Secreted Alkaline Phosphatase Day 7 ([2]; IP 26 nmol ligand): 143 ng/ml mouse sera
4 | COc1ccc(C(=O)N(NC(=O)c2ccc3c(c2C)OCCO3)C(C)(C)C)c(OC)n1 [RG-115517, 2,6-dimethoxy-nicotinic acid N-tert-butyl-N′-(5-methyl-2,3-dihydro-benzo[1,4]dioxine-6-carbonyl)-hydrazide] | 3.15 | 4 percentage of GS ™-E ligand induction | 3 percentage of GS ™-E ligand induction |  | 36.7 µM (≈ 15.8 µg/mL) | 2.9 | No | 31.6 ×10⁻⁶ cm/s | 96% | 0.9 | 28.8 ×10⁻⁶ cm/s | 28.4 ×10⁻⁶ cm/s | 29.3 ×10⁻⁶ cm/s | 26.4 ×10⁻⁶ cm/s | 25.2 ×10⁻⁶ cm/s | 27.6 ×10⁻⁶ cm/s | 91% | 95% | 
